# Measurements taken from paper PMC5552691, “Novel giardicidal compounds bearing proton pump inhibitor scaffold proceeding through triosephosphate isomerase inactivation” (Scientific Reports, 2017).
# Legend:
# [1] = biological target: T1, triosephosphate isomerase of G. lamblia (GlTIM) (Giardia intestinalis, UniProt P36186, C202A); experiment: Inactivation assay of recombinant GlTIM (C202A variant); type: biochemical; details: for Inactivation of GlTIM (in words): 2 hours at 37 °C; for kinact/KI: pH 7.4, read-out: Second-order rate constant of inactivation
# T1 construct: His-tag (N, cleaved yes); TEV protease recognition site (N); made in house; host or cells: Escherichia coli
# Experimental: We evaluated the effect of compounds incubating the enzyme with each one of them for 2 hours at 37 °C and the IC50 values were then calculated from the residual activity data.
# GlTIM (200 µg/mL) was incubated with increasing concentrations of compounds. After 2 hours of incubation at 37 °C, the reactions were stopped by dilution and the remaining activity was determined as described in the material and methods section.
# (§1) For all assays we used mutant GlTIM C202A in order to work with the dimeric form of enzyme; this mutant was referred in the paper as GlTIM and was prepared as described before. The recombinant GlTIM containing a His-tag in its NH-terminal together with a recognition region for tobacco […] virus protease, was expressed in Escherichia coli. The GlTIM purification was performed by using IMAC method; after His-tag was removed, the enzyme was stored at 4 °C in a buffer containing 100 mM triethanolamine, 10 mM EDTA, pH 7.4 (TE buffer). […] Mutant of GlTIM C222A and human TIM (HsTIM) were prepared as described before, [33]. Protein content of GlTIM and HsTIM was calculated by using a ε M ^−1cm^−1 of 26,600 and 32,595, respectively. For all assays, the enzymes were freshly prepared with no more of two weeks of storage.
# TIM activity was determined in a Cary50 spectrophotometer (Varian) at 25 °C using coupling assay following the conversion of D-glyceraldehyde 3-phosphate to dihydroxyacetone phosphate as described before. The reaction mixture contained TE buffer (pH 7.4) supplemented with 0.2 mM NADH, 1 mM GAP, and 0.9 U of alpha-GDH. The reaction started by adding 5 ng/mL of TIM.
# (§2) Omeprazole and compounds stock solutions were freshly prepared using 100% DMSO as solvent. […] The reaction was stopped by diluting the enzyme 40,000 times in TE buffer and then, the remaining activity was determined. The second-order rate constants of inactivation were calculated from obtaining the pseudo-first order rate constant (k 1) values at each fixed concentration of compounds by fitting them to an exponential decay. Then, the k 1 values were re-plotted against the employed concentrations of each compound; the second-order rate constant value of inactivation was obtained from the slope of these plots.
# [2] = Cytotoxicity assay (MTT) in human fibroblasts; type: cell-based; details: human, gingival human fibroblasts, 95% confidence limits in square brackets
# Experimental: (§3) The cytotoxic effect of these compounds was also evaluated in mammal cell cultures and their CC50 values calculated and depicted in Table 2.
# (§4) We used the cell lines VERO (ATCC:CCL-81) and gingival human fibroblasts (kindly provided by Dra. María Dolores Farfán from Facultad de Odontología, Universidad Nacional Autónoma de México). The assay procedure is described below. Cells were maintained in a DMEM medium supplemented with antibiotic-antimycotic (1X), L-glutamine (1X) and 10% fetal bovine serum. Cells were incubated in 25 mL plastic culture flasks (Nunc) at 37 °C and 5% CO2. After the cell cultures grew to confluence, we determined the cell viability by using Trypan Blue method; then, cells were seeded at 4 × 10^4 cells/well in 100 µL culture medium during 24 hours. […] DMSO was maintained constant at 0.2%; a control was performed by incubating cells with this solvent concentration but in absence of compounds. After incubation time, we measured the cell viability by using MTT (3-(4,5-Dimethyl-2-thiazolyl)-2,5-diphenyl-2H-tetrazolium bromide; Roche Diagnostics) method. Briefly, 10 µL MTT (5 mg/mL) was added to cell cultures and incubated at 37 °C during four hours; then, 100 µL of solution containing 10% SDS and 0.01N HCl was added. Thereafter, the formazan products were spectrophotometrically quantified at 570 nm (Labxystem Uniskan, Manchester). The CC50 (median cytotoxicity concentration) and CI95 (95% confidence interval) values from each experiment were determined from the concentration-percentage plots of cell viability obtained by logistic regression. Statistical analysis was performed using the SPPSS software (version 17.0).
# [3] = tested on: VERO cells; experiment: Cytotoxicity assay (MTT) in VERO cells; type: cell-based; details: for CC50 mammal cells relative to IC50 for trophozoites: mammal cells: human fibroblasts and VERO cells together
# Experimental: as §3, §4
# [4] = Cytotoxicity assay (MTT) in VERO cells; type: cell-based; details: African green monkey, VERO cells (ATCC CCL-81); 24 hours, MTT; 95% confidence limits in square brackets
# Experimental: as §3, §4
# [5] = Solubility (remark in the discussion); type: physicochemical
# [6] = biological target: T2, GlTIM (Giardia intestinalis, UniProt P36186, C202A); experiment: Quantification of free Cys of derivatized GlTIM (Ellman's reagent); type: biochemical, Giardia lamblia; details: for Number of free Cys per monomer after treatment: GlTIM 6 mg/mL (214 µM), compound 1 mM, two hours at 37 °C; for Number of free Cys per monomer after treatment and then DTT: derivatized enzyme incubated with 5 mM DTT during 15 minutes
# T2 construct: His-tag (N, cleaved yes); TEV protease recognition site (N); made in house; host or cells: Escherichia coli
# Experimental: We evaluated the first option by determining the residual free Cys after derivatization with compounds and afterwards reducing agent treatment. Thus, 6 mg/mL (214 µM) of GlTIM was incubated with or without each one of compounds (1 mM) during two hours at 37 °C. It is important to remark that at the protein concentration used for this aim, a considerable quantity was precipitated. Therefore, the incubation of the samples was arrested by centrifuging and then filtration through a 3 mL Sephadex G-25 column, and the number of free Cys quantified from the soluble protein. […] In contrast, the number of Cys per monomer obtained for omeprazole, BHO2 and BHO3 treatment was respectively 2.02 ± 0.02, 1.9 ± 0.2 and 2.15 ± 015. […] An aliquot of each derivatized enzyme was withdrawn and incubated with 5 mM DTT during 15 minutes; then, the samples were filtered and the free Cys was again quantified. The number of Cys/monomer was 2.2 ± 0.2, 2,1 ± 0.22 and 1.8 ± 0.18 for omeprazole, BHO2 and BHO3, respectively.
# To carry out the experiments, the derivatized GlTIM with different molecules was incubated with 2 mM DTT and then filtered through 3 mL Sephadex G-25 column to remove the unreacted compounds. All spectroscopic assays were carried out at protein concentration of 0.2 mg/mL (7 µM). Cysteine quantification was performed spectrophotometrically using de Ellman’s reagent as described before, [36]. Briefly, 200 µg of GlTIM were suspended in TE buffer supplemented with 5% SDS; after an incubation of 10 min at 25 °C, the enzyme was added to a cuvette containing 500 µL of TE buffer supplemented with 5% SDS and 1 mM DTNB. Cysteine quantification was done following the increase of absorbance at 412 nm, using an ε M ^−1 cm ^−1 of 13,600[36].
# [7] = tested on: G. lamblia WB trophozoites; experiment: Susceptibility assay of Giardia trophozoites; type: cell-based, Giardia lamblia; details: Giardia duodenalis; 48 hours at 37 °C with compound, then 48 hours in compound-free medium; ± standard error
# Experimental: The anti-giardiasic ability of compounds was tested in an in vitro. […] Thus, for BHO2 and BHO3 the values (130 and 122 µM, respectively) were around of the half of that obtained for omeprazole (300 µM).
# Figure 6 Anti-giardiasic activity of Compounds in trophozoites. Cultures of trophozoites (100,000 trophozoites/mL) were incubated during 48 hours at 37 °C with increasing concentrations of compounds. Afterward, samples were withdrawn and resuspended in a medium free of compounds. The samples were incubated for other 48 hours/37 °C and thereafter, the viability of trophozoites were quantified. The values represent ± standard deviation from three independent experiments.
# We used the G. lamblia WB reference isolate in all experiments. The splitting method used to our susceptibility assays is described below. Cultures with 100,000 trophozoites/mL on TYI-S-33 medium were incubated during 48 hours at 37 °C supplemented with increasing concentrations of compounds ranging from 32.5 to 500 µM. Afterward, samples were chilled in ice for 15 minutes, washed with medium and resuspended in 50 µL of medium free of compounds and antibiotic. Then, trophozoites were diluted in 1 mL of medium free of compounds and antibiotic, incubated for 48 hours at 37 °C and then, the viability of trophozoites was manually quantified by using a Neubauer chamber; the viability percent and IC50 was subsequently calculated.
# [8] = biological target: T1, triosephosphate isomerase of G. lamblia (GlTIM); details: cited from earlier work
# [9] = biological target: T3, mutant GlTIM C222A (Giardia intestinalis, UniProt P36186, C202A/C222A); experiment: Inactivation assay of mutant GlTIM C222A; type: biochemical, Giardia lamblia
# T3 construct: made in house
# Experimental: as §1, with “For all assays, the enzymes were freshly prepared with no more of two weeks of storage.” left out
# (§5) TIM activity was determined in a Cary50 spectrophotometer (Varian) at 25 °C using coupling assay following the conversion of D-glyceraldehyde 3-phosphate to dihydroxyacetone phosphate as described before. […]
# as §2, with “Then, the k 1 values were re-plotted against the employed concentrations of each compound; the second-order rate constant value of inactivation was obtained from the slope of these plots.” left out
# [10] = tested on: gingival human fibroblasts; experiment: Cytotoxicity assay (MTT) in human fibroblasts; type: cell-based; details: 24 hours, 95% confidence limits in square brackets
# Experimental: as §3, §4
# [11] = biological target: T4, human TIM (HsTIM) (Homo sapiens, UniProt P60174); experiment: Inactivation assay of human TIM; type: biochemical
# T4 construct: made in house
# Experimental: as §1, with “For all assays, the enzymes were freshly prepared with no more of two weeks of storage.” left out
# as §5
# as §2, with “Then, the k 1 values were re-plotted against the employed concentrations of each compound; the second-order rate constant value of inactivation was obtained from the slope of these plots.” left out
# T2 sequence (P36186 whole entry C202A): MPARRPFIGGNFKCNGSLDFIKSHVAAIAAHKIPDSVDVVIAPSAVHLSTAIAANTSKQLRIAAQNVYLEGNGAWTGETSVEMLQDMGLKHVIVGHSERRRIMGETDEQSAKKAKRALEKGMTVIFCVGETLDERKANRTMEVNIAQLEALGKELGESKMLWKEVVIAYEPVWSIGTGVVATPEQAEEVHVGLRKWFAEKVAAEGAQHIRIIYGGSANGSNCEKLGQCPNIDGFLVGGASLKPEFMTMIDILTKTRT
# T1 sequence (P36186 whole entry C202A): as above
# T4 sequence (P60174 whole entry): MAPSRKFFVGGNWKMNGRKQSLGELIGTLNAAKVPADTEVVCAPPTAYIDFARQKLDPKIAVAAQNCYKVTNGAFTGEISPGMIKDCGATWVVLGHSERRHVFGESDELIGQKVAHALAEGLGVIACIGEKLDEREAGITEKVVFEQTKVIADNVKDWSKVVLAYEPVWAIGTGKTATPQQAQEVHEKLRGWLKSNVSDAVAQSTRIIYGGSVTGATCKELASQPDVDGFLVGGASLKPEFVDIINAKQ
# T3 sequence (P36186 whole entry C202A/C222A): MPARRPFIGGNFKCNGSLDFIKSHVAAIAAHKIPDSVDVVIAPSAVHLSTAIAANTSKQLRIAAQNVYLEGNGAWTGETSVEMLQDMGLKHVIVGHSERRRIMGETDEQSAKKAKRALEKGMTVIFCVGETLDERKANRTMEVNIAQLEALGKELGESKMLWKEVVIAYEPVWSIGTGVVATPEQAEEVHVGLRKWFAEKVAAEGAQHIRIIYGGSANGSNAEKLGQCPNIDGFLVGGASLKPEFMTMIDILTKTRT
Structure (SMILES),Inactivation of GlTIM (in words) [1],melting point [°C],IC50 [1] [µM],Increase of reactivity against GlTIM respect to omeprazole [1],Reversibility of GlTIM inhibition [1],kinact/KI [1] [M⁻¹ s⁻¹],CC50 at 24 h [2] [µM],CC50 mammal cells relative to IC50 for trophozoites [3],CC50 at 24 h [4] [µM],Solubility respect to omeprazole [5],Number of free Cys per monomer after treatment [6] [Cys/monomer],IC50 [7] [µM],Number of free Cys per monomer after treatment and then DTT [6] [Cys/monomer],"Reversibility of GlTIM inhibition, reported before [8]","Second-order rate constant of inactivation, previously reported [8] [M⁻¹ s⁻¹]",Effect on activity of mutant GlTIM C222A (in words) [9],CC50 Human Fibroblasts [10],CC50 Human Fibroblasts ([10]; listed as omeprazole),CC50 VERO cells relative to trophozoites cytotoxicity [3] [fold],Inactivation of HsTIM (in words) [11]
"Cc1ccc2nc([S+]([O-])Cc3ccccn3)[nH]c2c1 (centres unmarked) [BHO1, 5(6)-methyl-2-[(pyridin-2-ylmethyl)sulfinyl]−1H-benzimidazole]",inactivated scarcely,121.3 to 122.9,–,–,–,–,–,–,–,–,–,–,–,–,–,–,–,–,–,–
"COc1c(C)cnc(C[S+]([O-])c2nc3ccc(C)cc3[nH]2)c1C (centres unmarked) [BHO2, 2-[(4-methoxy-3,5-dimethylpyridin-2-yl)methylsulfinyl]-5(6)-methyl-1H-benzimidazole]",–,221.4 to 222.8,64,three-fold,irreversibly,1.6 ± 0.1,5000,38- to 61 fold,8000,improved its solubility,1.9 ± 0.2,130,–,–,–,–,–,–,–,–
"Cc1ccc2nc([S+]([O-])Cc3nccc(OCC(F)(F)F)c3C)[nH]c2c1 (centres unmarked) [BHO3, 5(6)-Methyl-2-({[3-methyl-4-(2,2,2-trifluoroethoxy)pyridin-2-yl]methyl}sulfinyl]-1H-benzimidazole]",–,228.5 to 229.8,100,two-fold,irreversibly,1.2 ± 0.06,5500,38- to 61 fold,4700,–,2.15 ± 015,122 ± 1.7,1.8 ± 0.18,–,–,–,–,–,–,–
"COc1ccc2[nH]c([S+]([O-])Cc3ncc(C)c(OC)c3C)nc2c1 (centres unmarked) [Omeprazole, omeprazole, reference compound]",inactivated the GlTIM completely,–,225,–,–,0.78 ± 0.016,–,–,14000,–,2.02 ± 0.02,300 ± 10.2,2.2 ± 0.2,irreversible,0.6,affects marginally,No effect,did not show cytotoxic effect,46,unaffected
